Source: the supplement of paper PMC11451515

System: NOMO1
Experiment: cell viability relative to DMSO control; higher = less cytotoxic
Conditions: 48 h
Summary of the method: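 Viability is a per-plate percentage relative to DMSO wells, with cell-free wells as background. CellTiter-Glo One luminescence was read after 48 h at 37°C on 1536-well plates (5 μl) of NOMO1 or SEM (500 cells/well) or P12-Ichikawa (1000 cells/well) leukemia cells. The cells had been adapted for at least four passages in each medium and pin-dosed with library compounds in DMSO from 47 μM to 0.79 nM in 11 threefold steps.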

Row | Structure (SMILES) | cell viability (RPMI 5 mM glucose + 10% dialyzed FBS, 0.000781 µM) | cell viability (RPMI 5 mM glucose + 10% dialyzed FBS, 0.00234 µM) | cell viability (RPMI 5 mM glucose + 10% dialyzed FBS, 0.00702 µM) | cell viability (RPMI 5 mM glucose + 10% dialyzed FBS, 0.0211 µM) | cell viability (RPMI 5 mM glucose + 10% dialyzed FBS, 0.0632 µM) | cell viability (RPMI 5 mM glucose + 10% dialyzed FBS, 0.19 µM) | cell viability (RPMI 5 mM glucose + 10% dialyzed FBS, 0.569 µM) | cell viability (RPMI 5 mM glucose + 10% dialyzed FBS, 1.71 µM) | cell viability (RPMI 5 mM glucose + 10% dialyzed FBS, 5.12 µM) | cell viability (RPMI 5 mM glucose + 10% dialyzed FBS, 15.4 µM) | cell viability (RPMI 5 mM glucose + 10% dialyzed FBS, 46.1 µM) | cell viability (RPMI 5 mM glucose + 10% FBS, 0.000781 µM) | cell viability (RPMI 5 mM glucose + 10% FBS, 0.00234 µM) | cell viability (RPMI 5 mM glucose + 10% FBS, 0.00702 µM) | cell viability (RPMI 5 mM glucose + 10% FBS, 0.0211 µM) | cell viability (RPMI 5 mM glucose + 10% FBS, 0.0632 µM) | cell viability (RPMI 5 mM glucose + 10% FBS, 0.19 µM) | cell viability (RPMI 5 mM glucose + 10% FBS, 0.569 µM) | cell viability (RPMI 5 mM glucose + 10% FBS, 1.71 µM) | cell viability (RPMI 5 mM glucose + 10% FBS, 5.12 µM) | cell viability (RPMI 5 mM glucose + 10% FBS, 15.4 µM) | cell viability (RPMI 5 mM glucose + 10% FBS, 46.1 µM)
1 | Cc1c(C(=O)NN2CCCCC2)nn(-c2ccc(Cl)cc2Cl)c1-c1ccc(Cl)cc1 | 122% | 120% | 125% | 143% | 128% | 138% | 76.3% | 46.8% | 32.8% | 28.1% | 36% | – | – | – | – | – | – | – | – | – | – | –
2 | N#Cc1c(NC(=O)c2cccc3ccccc23)sc2c1CCCC2 | – | – | – | – | – | – | – | – | – | – | – | 120% | 142% | 118% | 128% | 139% | 134% | 127% | 25.4% | 26.1% | 21.7% | 21%
